Data from ChEMBL document CHEMBL1201862, “PubChem BioAssay data set” (2004).
Activity calls are given as the source filed them.

Columns and labels:
[1] = biological target: T1, Polyadenylate-binding protein 1 (Homo sapiens, UniProt P11940); assay: MLLE binding blockers, Cy5 peptide tracer – biochemical, fluorescence polarization, Cy5-PAM2 peptide, secondary, miRNA deadenylation inhibitor project, dose response (AID 602260); format: functional; details: read-out: IC50_Mean
[2] = biological target: T1, Polyadenylate-binding protein 1; assay: MLLE domain peptide-binding blockers, IC50 – biochemical, fluorescence polarization, FITC-PAM2 peptide, dose response (AID 602259); format: functional; details: read-out: IC50_Mean
[3] = biological target: T2, Leucine aminopeptidase (Plasmodium falciparum 3D7, UniProt Q8IL11); assay: P. falciparum M17LAP inhibitors, primary screen, biochemical, fluorogenic H-Leu-NHMec substrate, 1536-well (AID 1619); format: functional
T2 sequence (Q8IL11 whole entry): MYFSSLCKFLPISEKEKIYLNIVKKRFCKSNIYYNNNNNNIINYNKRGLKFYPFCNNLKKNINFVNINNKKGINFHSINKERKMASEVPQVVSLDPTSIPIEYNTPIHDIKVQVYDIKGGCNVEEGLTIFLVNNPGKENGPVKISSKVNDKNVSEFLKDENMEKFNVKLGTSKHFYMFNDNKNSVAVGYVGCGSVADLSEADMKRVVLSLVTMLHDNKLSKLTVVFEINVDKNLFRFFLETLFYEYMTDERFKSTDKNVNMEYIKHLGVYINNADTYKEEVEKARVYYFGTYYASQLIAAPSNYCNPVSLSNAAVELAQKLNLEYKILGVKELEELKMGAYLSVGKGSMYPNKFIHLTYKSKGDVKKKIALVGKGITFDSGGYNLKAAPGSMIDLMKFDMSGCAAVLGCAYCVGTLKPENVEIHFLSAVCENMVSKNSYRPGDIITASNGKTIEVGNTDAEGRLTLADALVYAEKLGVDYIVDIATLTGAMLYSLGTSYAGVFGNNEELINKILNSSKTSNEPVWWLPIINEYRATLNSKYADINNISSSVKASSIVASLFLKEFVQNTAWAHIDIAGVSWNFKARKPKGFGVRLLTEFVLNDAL

[4] = A549 cell cytotoxicity, dose response, cytotoxicity control, plate reader, cherry-pick, antagonist series (AID 743412); format: functional, cell-based
[5] = toxicity toward HepG2 liver cells – cell-based, plate reader, cherry-pick, antagonist series, cytotoxicity control, dose response (AID 743416); format: functional
[6] = blockers of bursicon-stimulated LGR2 cAMP reporter – cell-based, HEK293, CRE-luciferase reporter, cherry pick, set 2, dose response (AID 743343); format: functional;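 note: transfected cells were stimulated with diluted bursicon conditioned medium after compound addition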
[7] = blockade of melanocortin 4 receptor signaling – cell-based, plate reader, cherry pick, counter-screen for LGR2 antagonist project, dose response (AID 743444); format: functional;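 note: transfected HEK 293 cells stimulated with alpha-MSH peptide; potency of inhibitors of the alpha-MSH evoked signal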
[8] = viability loss in HEK293 cells – cell-based, plate reader, cherry-picked samples, cytotoxicity control, dose response (AID 743446); format: functional
[9] = test system: H9c2; assay: cells; format: functional, cell-based; details: Rattus norvegicus, H9c2, Myocardium;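 note: confirmatory concentration-response retest of ultra-high-throughput screening hits for modulation of myocardial damage; cell death induced by hydrogen peroxide oxidative stress; compound pretreatment for 60 min then peroxide exposure for 2 h; potency is for protecting the cells against peroxide damage rather than for killing them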
[10] = cells; format: functional, cell-based
[11] = cells; format: functional, cell-based; remark: listed apart in the source
[12] = biological target: FAD-linked sulfhydryl oxidase ALR (Homo sapiens, UniProt P55789); assay: ALR-catalysed DTT oxidation blockers – biochemical, H2O2 detection, luminescence, cherry-pick, dose response (AID 493248)
[13] = biological target: T3, Rac GTPase-activating protein 1 (Homo sapiens, UniProt Q9H0H5); assay: blockers of MgcRacGAP-driven Rac1 GTP hydrolysis – biochemical, ADP Hunter fluorescence, primary and confirmatory, confirmation (AID 624330); format: functional
T3 sequence (Q9H0H5 whole entry): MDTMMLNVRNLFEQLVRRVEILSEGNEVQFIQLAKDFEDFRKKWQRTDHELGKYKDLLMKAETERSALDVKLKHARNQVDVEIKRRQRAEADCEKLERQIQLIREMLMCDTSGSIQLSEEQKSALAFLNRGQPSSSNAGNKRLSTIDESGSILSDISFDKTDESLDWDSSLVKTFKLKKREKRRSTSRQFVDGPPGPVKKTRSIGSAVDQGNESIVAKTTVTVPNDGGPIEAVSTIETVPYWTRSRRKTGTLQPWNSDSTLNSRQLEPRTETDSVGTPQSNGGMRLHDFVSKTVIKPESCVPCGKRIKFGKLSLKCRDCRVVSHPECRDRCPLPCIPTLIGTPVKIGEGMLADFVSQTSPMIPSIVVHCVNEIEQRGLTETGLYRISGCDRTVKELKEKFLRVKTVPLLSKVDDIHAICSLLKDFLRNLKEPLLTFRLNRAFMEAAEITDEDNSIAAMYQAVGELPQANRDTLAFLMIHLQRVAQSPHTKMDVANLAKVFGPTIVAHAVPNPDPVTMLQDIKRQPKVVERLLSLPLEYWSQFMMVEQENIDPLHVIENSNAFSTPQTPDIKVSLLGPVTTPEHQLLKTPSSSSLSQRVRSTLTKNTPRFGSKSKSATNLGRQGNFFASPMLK

[14] = biological target: T4, Calpain-2 catalytic subunit (Sus scrofa, UniProt P43367); assay: m-calpain protease blockers, concentration series – biochemical, fluorogenic peptide substrate, dose response (AID 1420); format: functional
T4 sequence (P43367 whole entry): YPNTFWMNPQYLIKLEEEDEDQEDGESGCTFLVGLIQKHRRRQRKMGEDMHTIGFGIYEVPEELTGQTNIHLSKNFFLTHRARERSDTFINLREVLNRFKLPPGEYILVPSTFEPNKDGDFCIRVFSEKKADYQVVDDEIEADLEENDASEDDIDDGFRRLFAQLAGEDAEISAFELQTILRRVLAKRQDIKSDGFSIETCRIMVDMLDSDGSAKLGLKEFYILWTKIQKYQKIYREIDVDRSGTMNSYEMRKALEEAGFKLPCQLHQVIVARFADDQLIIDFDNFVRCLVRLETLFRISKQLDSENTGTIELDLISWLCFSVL

[15] = test system: BJ; assay: BJ-TERT fibroblast viability loss – cell-based, RAS-independent, luminescence, dose response (AID 1933); format: functional; details: Homo sapiens
[16] = test system: BJ; assay: cells; format: functional, cell-based; details: Homo sapiens
[17] = test system: BJ; assay: BJ-TERT-LT-ST fibroblast viability loss – cell-based, RAS-independent, luminescence, dose response (AID 1935); format: functional; details: Homo sapiens;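 note: BJ fibroblasts immortalized with TERT plus LT and ST oncogenes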
[18] = DRD fibroblast viability loss – cell-based, non-viral oncogenic, luminescence, dose response (AID 1934); format: functional; details: Homo sapiens
[19] = Trypanosoma cruzi growth suppression in host cells – NIH3T3 host cells, beta-gal luminescence, confirmation (AID 2044); format: functional, cell-based;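 note: intracellular parasites grown in NIH/3T3 mouse fibroblasts as host cells; luminescent beta-galactosidase reporter signal from transgenic T. cruzi replicating inside host cells; inhibitors lower the luminescence signal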
[20] = NIH3T3 cell viability loss – ATP luminescence, mouse fibroblasts, counter-screen, dose response (AID 2010); format: functional, cell-based;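 note: cells exposed to compound for about 90 hours before reading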
[21] = test system: INS1; assay: INS-1E survival protection against cytokine death – cell-based, luminescence, retest, dose response (AID 449756); format: functional; details: Rattus norvegicus;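 note: cell death triggered by IL-1 beta plus TNF-alpha plus IFN-gamma mixture; protective hits raise ATP signal compared with cytokine alone wells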
[22] = biological target: Paired box protein Pax-8 (Homo sapiens, UniProt Q06710); assay: PAX8 transcriptional activity inhibition in RMG-I – RMG-I cells, luciferase, cherry-pick, dose response (AID 687027); format: functional, cell-based;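 note: luciferase reporter driven by Pax8 target thyroperoxidase promoter measured by SteadyGlo luminescence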
Chain of Paired box protein Pax-8 (Q06710 whole entry): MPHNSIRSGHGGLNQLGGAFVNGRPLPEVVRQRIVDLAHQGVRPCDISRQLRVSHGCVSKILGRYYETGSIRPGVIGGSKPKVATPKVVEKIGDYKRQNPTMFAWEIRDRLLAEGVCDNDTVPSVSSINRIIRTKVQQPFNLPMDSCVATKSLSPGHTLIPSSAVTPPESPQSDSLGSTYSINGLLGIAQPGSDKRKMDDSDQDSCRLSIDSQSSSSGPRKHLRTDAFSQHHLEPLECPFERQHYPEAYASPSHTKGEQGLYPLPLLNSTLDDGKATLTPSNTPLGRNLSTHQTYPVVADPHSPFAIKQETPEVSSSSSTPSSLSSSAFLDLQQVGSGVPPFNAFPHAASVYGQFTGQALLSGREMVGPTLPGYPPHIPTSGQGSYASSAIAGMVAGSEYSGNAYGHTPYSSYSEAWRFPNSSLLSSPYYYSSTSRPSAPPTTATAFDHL

Chain of FAD-linked sulfhydryl oxidase ALR (P55789 whole entry): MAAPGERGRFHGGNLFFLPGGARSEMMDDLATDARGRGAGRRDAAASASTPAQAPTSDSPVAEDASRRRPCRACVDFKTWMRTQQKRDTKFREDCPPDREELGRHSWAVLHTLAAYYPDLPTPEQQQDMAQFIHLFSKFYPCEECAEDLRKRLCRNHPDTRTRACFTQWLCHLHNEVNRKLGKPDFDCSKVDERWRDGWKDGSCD
T1 sequence (P11940 whole entry, the tested form may be a part): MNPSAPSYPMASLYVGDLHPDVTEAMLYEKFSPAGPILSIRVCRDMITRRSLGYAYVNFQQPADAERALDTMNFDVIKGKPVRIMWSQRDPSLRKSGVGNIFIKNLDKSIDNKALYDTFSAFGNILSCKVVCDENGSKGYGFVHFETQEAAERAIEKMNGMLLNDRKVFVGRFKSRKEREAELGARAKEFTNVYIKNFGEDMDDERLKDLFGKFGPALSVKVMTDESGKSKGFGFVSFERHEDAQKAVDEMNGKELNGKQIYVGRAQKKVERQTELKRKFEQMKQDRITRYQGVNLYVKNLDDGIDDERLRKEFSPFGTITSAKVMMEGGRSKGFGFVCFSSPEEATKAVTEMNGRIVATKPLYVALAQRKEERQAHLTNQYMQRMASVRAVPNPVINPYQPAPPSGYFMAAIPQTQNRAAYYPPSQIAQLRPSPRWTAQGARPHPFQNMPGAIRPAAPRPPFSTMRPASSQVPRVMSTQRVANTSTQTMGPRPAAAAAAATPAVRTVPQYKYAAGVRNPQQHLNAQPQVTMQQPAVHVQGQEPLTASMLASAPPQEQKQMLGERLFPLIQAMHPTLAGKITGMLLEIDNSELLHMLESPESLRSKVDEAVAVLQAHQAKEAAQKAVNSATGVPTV

SMILES: O=C1C=C(NNC(=O)c2cccnc2)CC(c2ccco2)C1 (configuration not stated)
- IC50 [1]: > 66 µM (inactive)
- IC50 [2]: > 66 µM (inactive)

SMILES: CCOc1ccc(Nc2nc(Cc3nnc(SCC(=O)O)o3)cs2)cc1
- IC50 [3]: 7.08 µM (active)

SMILES: Cc1ccc(S(=O)(=O)Nc2ccc3c(c2)CC(=O)N([C@H](C)CO)C[C@@H](C)[C@H](CN(C)Cc2ccc(C(F)(F)F)cc2)O3)cc1
- AC50 [4]: 8.46 µM (active)
- AC50 [5]: 10.5 µM (active)
- AC50 [6]: 21.6 µM (active)
- AC50 [7]: 14.1 µM (active)
- AC50 [8]: 17.8 µM (active)

SMILES: CCOC(=O)COc1ccc2c3c(c(=O)oc2c1)CCCC3
- IC50 [9]: 31.2 µM (inactive)

SMILES: Cc1ccc(C(=O)Nc2ccc3c(c2)nc(CCNC(=O)c2ccco2)n3C)cc1
- EC50 [10]: > 350 µM (not active)
- EC50 [11]: > 350 µM (not active)

SMILES: Cc1sc(NC(=O)C2CC=CCC2C(=O)O)c(C(=O)OC(C)C)c1C (configuration not stated)
- IC50 [3]: 24.1 µM (active)

SMILES: Cc1ncsc1CCC(=O)N1CCCC(Nc2ccc(C(C)C)cc2)C1 (configuration not stated)
- AC50 [12]: 3.68 µM (active)

SMILES: CCOc1ccc(CCNC(=O)c2cc3c(C)nccc3nc2O)cc1OCC
- IC50 [9]: > 79 µM (inactive)

SMILES: O=C(NCC(=O)N(Cc1ccco1)C(C(=O)NC1CCCCC1)c1cccnc1)c1cccs1 (configuration not stated)
- EC50 [10]: > 350 µM (not active)
- EC50 [11]: > 350 µM (not active)

SMILES: COc1ccc(OC)c(C2C(C#N)=C(N)Oc3cc(N)ccc32)c1 (configuration not stated)
- AC50 [12]: 3.1 µM (active)

SMILES: OC1(c2cn(Cc3ccccc3)nn2)CCCCC1
- IC50 [3]: 61.5 µM (active)

SMILES: CCO/C(O)=C1/Sc2cc(C)ccc2N=C1C
- IC50 [1]: > 66 µM (inactive)
- IC50 [2]: > 66 µM (inactive)

SMILES: Cc1ccc(N=C(S)C2=C(O)c3ccccc3N(C)S2(=O)=O)cc1
- IC50 [1]: > 66 µM (inactive)
- IC50 [2]: > 66 µM (inactive)

SMILES: Cc1cc(N2CCCC2)ccc1NC(=O)CN1C(=O)NC2(CCCCC2)C1=O
- AC50 [12]: 0.644 µM (active)
- IC50 [13]: 268 µM (active)

SMILES: O=C(CCc1nc(O)c2ccccc2n1)N1CCN(c2ccccc2Cl)CC1
- IC50 [9]: > 79 µM (inactive)

SMILES: Cc1cccc(NC(=O)c2[nH]cnc2C(=O)NCC(=O)OCc2ccccc2)c1
- IC50 [9]: > 79 µM (inactive)

SMILES: Cc1cc(NS(=O)(=O)c2ccc(NC(=S)NC(=O)c3ccc(F)cc3)cc2)no1
- IC50 [1]: > 66 µM (inactive)
- IC50 [2]: > 66 µM (inactive)

SMILES: Cn1cc(CC(=O)N2CCN(c3ccc(Cl)cc3)CC2)c2ccccc21
- EC50 [10]: > 350 µM (not active)
- EC50 [11]: > 350 µM (not active)

SMILES: Cc1c(O)c([S+]([O-])c2ccccc2)c(=O)n(-c2ccccc2)c1-c1ccccc1 (configuration not stated)
- IC50 [3]: 15.1 µM (active)

SMILES: CCCCN(CC)CCNC(=O)CNC(=O)Cn1ccc2ccccc2c1=O
- IC50 [14]: 46.5 µM (not active)

SMILES: CC(OC(=O)Cc1nnc(O)c2ccccc12)C(=O)Nc1ccc(F)cc1 (configuration not stated)
- IC50 [9]: > 79 µM (inactive)

SMILES: C=CCNC(=S)N/N=C/c1ccc(C)s1
- IC50 [14]: 27.1 µM (not active)

SMILES: CC(C)=NOC(=O)c1c(C)noc1-c1snnc1C
- EC50 [10]: > 350 µM (not active)
- EC50 [11]: > 350 µM (not active)

SMILES: COc1ccccc1C#Cc1ccc([C@H]2[C@H](C#N)N(C(=O)C3CCCCC3)[C@H]2CO)cc1
- AC50 [4]: 24.5 µM (active)
- AC50 [5]: 43.7 µM (active)
- AC50 [6]: 5.49 µM (active)
- AC50 [7]: 5.75 µM (active)
- AC50 [8]: 9.53 µM (active)

SMILES: Cc1cccc(NC(=O)c2oc3ccc(S(=O)(=O)N4CCOCC4)cc3c2C)c1C
- IC50 [9]: > 79 µM (inactive)

SMILES: OCc1cc(O)c(OCc2ccccc2)cn1
- EC50 [10]: > 350 µM (not active)
- EC50 [11]: > 350 µM (not active)

SMILES: CCc1ccc(C(=O)CSc2n[nH]c(C)n2)cc1
- IC50 [3]: 63.4 µM (active)

SMILES: CC(=O)Nc1ccc(Nc2ccc(S(=O)(=O)C(F)(F)F)cc2[N+](=O)[O-])cc1
- IC50 [14]: 20 µM (not active)

SMILES: CN(C)c1ccc(/C=N/NC(=O)c2ccccn2)cc1
- AC50 [12]: 35.5 µM (active)

SMILES: O=C1CCCc2cc3c(cc21)CC1(C3)Cc2cc3c(cc2C1)C(=O)CCC3
- EC50 [15]: 9.1 µM (active)
- EC50 [16]: 33 µM (active)
- EC50 [17]: 3.95 µM (inconclusive)
- EC50 [18]: 15.6 µM (active)

SMILES: CC(C)c1ccc(NC2CCCN(C(=O)c3cc(C(C)C)nc(N)n3)C2)cc1 (configuration not stated)
- AC50 [12]: 0.714 µM (active)

SMILES: Cc1cc(C(F)(F)F)nc(SCC(=O)NC2=NC(=O)C(C)S2)n1 (configuration not stated)
- IC50 [1]: > 66 µM (inactive)
- IC50 [2]: > 66 µM (inactive)

SMILES: CC(Oc1ccccc1Cl)C(=O)Nc1ccc(S(=O)(=O)N2CCN(C)CC2)cc1 (configuration not stated)
- IC50 [1]: > 66 µM (inactive)
- IC50 [2]: > 66 µM (inactive)

SMILES: c1ccc2nc3[nH]cnc3nc2c1
- IC50 [1]: > 66 µM (inactive)
- IC50 [2]: > 66 µM (inactive)

SMILES: CCn1c(-c2ccc(N(C)C)cc2)nc2ccccc21
- EC50 [19]: 1.67 µM (active)
- EC50 [20]: > 60 µM (not active)
- AC50 [12]: 1.48 µM (active)
- AC50 [21]: 4.25 µM (active)

SMILES: CCSc1nnc(-c2ccccc2/N=C/c2c(C)nn(-c3ccccc3)c2O)c(O)n1
- IC50 [3]: 39.6 µM (active)

SMILES: CC(C)NC(=S)N/N=C/C1=CCC2CC1C2(C)C (configuration not stated)
- IC50 [14]: 49 µM (not active)

SMILES: COc1ccc(-c2ccc3c(c2)S(=O)(=O)c2cccc(C(=O)NC[C@@H]4CCCO4)c2C3=O)cc1OC
- IC50 [9]: > 79 µM (inactive)

SMILES: O=C(c1ccc(Cl)cc1Cl)N1CCC(c2nc(O)c3nnn(Cc4ccco4)c3n2)CC1
- IC50 [14]: > 50 µM (not active)

SMILES: Cc1noc(C)c1S(=O)(=O)N(C)C[C@@H]1OCCCC[C@H](C)Oc2ccc(NS(=O)(=O)c3ccc(Cl)cc3)cc2C(=O)N([C@H](C)CO)C[C@@H]1C
- AC50 [22]: 10.4 µM (active)
